The record followed here is PMC12042115 (mLife, 2025).

The test system of the assay is wild‐type BCG cells. Format: cell-based, M. bovis BCG. The settings on record: protein A0A0H3MG19, BCG_2669 (Rv2642), Arsenical resistance operon repressor; down-regulated; 3 d.

As to `O=C(Oc1ccc(Cl)cc1)c1ccc(N2CCOCC2)c([N+](=O)[O-])c1` [GDI‐5755], the “Mean_Ratio (GDI5755_3d vs DMSO_3d)” value came to 0.7.
